Laboratory results as given in ChEMBL document CHEMBL1201862, “PubChem BioAssay data set” (2004).
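The compound was tested at five concentrations on cells cultured in 96-well plates, with a 48-hour exposure period. Here, GI50 denotes the concentration required for 50% inhibition of growth.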 Active and inactive are the calls of the source. Rule as the data show it: active = GI50 up to about 1.1 µM and inactive = higher.

Experiments:
Test in all cases: NCI anticancer screen, dose series, 48 h
SF-539 = system: SF-539
A549 = system: A549
SK-MEL-28 = system: SK-MEL-28
HT-29 = system: HT-29
T47D = system: T47D
BT-549 = system: BT-549
OVCAR-5 = system: OVCAR-5
OVCAR-4 = system: OVCAR-4
NCI-H460 = system: NCI-H460
IGROV-1 = system: IGROV-1
MDA-MB-231 = system: MDA-MB-231
Malme-3M = system: Malme-3M
OVCAR-3 = system: OVCAR-3
UACC-257 = system: UACC-257
SF-268 = system: SF-268
HCT-116 = system: HCT-116
A498 = system: A498
SW-620 = system: SW-620
HOP-92 = system: HOP-92
COLO 205 = system: COLO 205
MDA-MB-435 = system: MDA-MB-435
NCI-H23 = system: NCI-H23
786-0 = system: 786-0
RXF 393 = system: RXF 393
SK-MEL-5 = system: SK-MEL-5
DU-145 = system: DU-145
CCRF-CEM = system: CCRF-CEM
HCT-15 = system: HCT-15
SK-OV-3 = system: SK-OV-3
HOP-62 = system: HOP-62
NCI-H226 = system: NCI-H226
SNB-19 = system: SNB-19
UO-31 = system: UO-31
UACC-62 = system: UACC-62
SF-295 = system: SF-295
OVCAR-8 = system: OVCAR-8
EKVX = system: EKVX
LOX IMVI = system: LOX IMVI
KM12 = system: KM12
SR = system: SR
Hs-578T = system: Hs-578T
HL-60 = system: HL-60
CAKI-1 = system: CAKI-1
NCI/ADR-RES = system: NCI/ADR-RES
SK-MEL-2 = system: SK-MEL-2
RPMI-8226 = system: RPMI-8226
M14 = system: M14
SN12C = system: SN12C
MDA-N = system: MDA-N
PC-3 = system: PC-3
K562 = system: K562
TK-10 = system: TK-10
NCI-H522 = system: NCI-H522
U-251 = system: U-251
MOLT-4 = system: MOLT-4
SNB-75 = system: SNB-75
ACHN = system: ACHN
HCC 2998 = system: HCC 2998

CNC(=S)NNc1ncnc2c1ncn2-c1ccc(C)cc1
GI50 (SF-539): > 100 µM (inactive)
GI50 (A549): > 100 µM (inactive)
GI50 (SK-MEL-28): > 100 µM (inactive)
GI50 (HT-29): > 100 µM (inactive)
GI50 (T47D): > 100 µM (inactive)
GI50 (BT-549): > 100 µM (inactive)
GI50 (OVCAR-5): > 100 µM (inactive)
GI50 (OVCAR-4): > 100 µM (inactive)
GI50 (NCI-H460): > 100 µM (inactive)
GI50 (IGROV-1): > 100 µM (inactive)
GI50 (MDA-MB-231): 43.9 µM (inactive)
GI50 (Malme-3M): > 100 µM (inactive)
GI50 (OVCAR-3): > 100 µM (inactive)
GI50 (UACC-257): > 100 µM (inactive)
GI50 (SF-268): > 100 µM (inactive)
GI50 (HCT-116): > 100 µM (inactive)
GI50 (A498): > 100 µM (inactive)
GI50 (SW-620): > 100 µM (inactive)
GI50 (HOP-92): > 100 µM (inactive)
GI50 (COLO 205): > 100 µM (inactive)
GI50 (MDA-MB-435): > 100 µM (inactive)
GI50 (NCI-H23): > 100 µM (inactive)
GI50 (786-0): > 100 µM (inactive)
GI50 (RXF 393): > 100 µM (inactive)
GI50 (SK-MEL-5): > 100 µM (inactive)
GI50 (DU-145): > 100 µM (inactive)
GI50 (CCRF-CEM): > 100 µM (inactive)
GI50 (HCT-15): > 100 µM
GI50 (SK-OV-3): > 100 µM (inactive)
GI50 (HOP-62): > 100 µM (inactive)
GI50 (NCI-H226): > 100 µM (inactive)
GI50 (SNB-19): > 100 µM (inactive)
GI50 (UO-31): > 100 µM (inactive)
GI50 (UACC-62): > 100 µM (inactive)
GI50 (SF-295): > 100 µM (inactive)
GI50 (OVCAR-8): > 100 µM (inactive)
GI50 (EKVX): > 100 µM (inactive)
GI50 (LOX IMVI): > 100 µM (inactive)
GI50 (KM12): > 100 µM (inactive)
GI50 (SR): > 100 µM (inactive)
GI50 (Hs-578T): > 100 µM (inactive)
GI50 (HL-60): > 100 µM (inactive)
GI50 (CAKI-1): > 100 µM (inactive)
GI50 (NCI/ADR-RES): > 100 µM (inactive)
GI50 (SK-MEL-2): > 100 µM (inactive)
GI50 (RPMI-8226): > 100 µM (inactive)
GI50 (M14): > 100 µM (inactive)
GI50 (SN12C): > 100 µM (inactive)
GI50 (MDA-N): > 100 µM (inactive)
GI50 (PC-3): > 100 µM (inactive)
GI50 (K562): > 100 µM (inactive)
GI50 (TK-10): > 100 µM (inactive)
GI50 (NCI-H522): > 100 µM (inactive)
GI50 (U-251): > 100 µM (inactive)
GI50 (MOLT-4): > 100 µM (inactive)

NNC(=S)NCCNC(=S)NN
GI50 (A549): > 100 µM (inactive)
GI50 (SK-MEL-28): > 100 µM (inactive)
GI50 (HT-29): > 100 µM (inactive)
GI50 (T47D): > 100 µM (inactive)
GI50 (BT-549): > 100 µM (inactive)
GI50 (OVCAR-5): > 100 µM (inactive)
GI50 (OVCAR-4): > 100 µM (inactive)
GI50 (NCI-H460): > 100 µM (inactive)
GI50 (IGROV-1): > 100 µM (inactive)
GI50 (MDA-MB-231): 30.3 µM (inactive)
GI50 (Malme-3M): > 100 µM (inactive)
GI50 (OVCAR-3): > 100 µM (inactive)
GI50 (SNB-75): > 100 µM (inactive)
GI50 (UACC-257): > 100 µM (inactive)
GI50 (SF-268): > 100 µM (inactive)
GI50 (HCT-116): > 100 µM (inactive)
GI50 (SW-620): > 100 µM (inactive)
GI50 (COLO 205): > 100 µM (inactive)
GI50 (MDA-MB-435): > 100 µM (inactive)
GI50 (NCI-H23): > 100 µM (inactive)
GI50 (786-0): > 100 µM (inactive)
GI50 (SK-MEL-5): > 100 µM (inactive)
GI50 (DU-145): > 100 µM (inactive)
GI50 (CCRF-CEM): > 100 µM (inactive)
GI50 (ACHN): > 100 µM (inactive)
GI50 (SK-OV-3): > 100 µM (inactive)
GI50 (HOP-62): > 100 µM (inactive)
GI50 (SNB-19): > 100 µM (inactive)
GI50 (UO-31): > 100 µM (inactive)
GI50 (UACC-62): > 100 µM (inactive)
GI50 (SF-295): > 100 µM (inactive)
GI50 (HCC 2998): > 100 µM (inactive)
GI50 (EKVX): > 100 µM (inactive)
GI50 (LOX IMVI): > 100 µM (inactive)
GI50 (KM12): > 100 µM (inactive)
GI50 (SR): > 100 µM (inactive)
GI50 (Hs-578T): > 100 µM (inactive)
GI50 (HL-60): > 100 µM (inactive)
GI50 (CAKI-1): > 100 µM (inactive)
GI50 (SK-MEL-2): > 100 µM (inactive)
GI50 (RPMI-8226): > 100 µM (inactive)
GI50 (M14): > 100 µM (inactive)
GI50 (SN12C): > 100 µM (inactive)
GI50 (MDA-N): > 100 µM (inactive)
GI50 (PC-3): > 100 µM (inactive)
GI50 (NCI-H522): > 100 µM (inactive)
GI50 (U-251): > 100 µM (inactive)
GI50 (MOLT-4): > 100 µM (inactive)
